Test system: Pythium ultimum
Test: Control test against seedling blight fungus (Pythium ultimum)
Assay type: cell-based
Conditions: 1 μL of 500 ppm DMSO solution + 150 μL PDB medium with spores, 96 well plate, 23° C., 5 days, absorbance at 550 nm
Method: The untreated well represents a test well in which the procedures were carried out under the same conditions as those described in the Test Example except that dimethyl sulfoxide was dispensed in place of a diluted dimethyl sulfoxide solution containing the Present compound. The Present compound was diluted with dimethyl sulfoxide to obtain a diluted solution containing 500 ppm of the compound, 1 μL of the diluted solution was dispensed into a titer plate (96 well), and thereto was then dispensed 150 μL of a potato dextrose broth medium (PDB medium) to which spores of Pythium ultimum were inoculated in advance. This plate was cultured at 23° C. for 5 days, thereby allowing Pythium ultimum to undergo proliferation, and the absorbance at 550 nm of each well of the titer plate was then measured to obtain a value as a degree of growth of Pythium ultimum. As a result, the degree of growth in the well treated with the Present compound was 50% or less relative to the degree of growth in the untreated well.

In the case of `CC1CC(S(C)(=O)=O)C(O)(c2ccccc2)CC1=O` (stereo not shown) [Present compound], the “degree of growth relative to the degree of growth in the untreated well” value is reported as at most 50%.

Source: patent publication US20260262639A1, “PHENYLCYCLOHEXANONE COMPOUND AND USE THEREFOR” (SUMITOMO CHEMICAL COMPANY, LIMITED, priority 2023, published 2026)
